Assay results as given in PubChem BioAssay AID192 (DTP/NCI, 2004).
“And” between values parts separate entries of the source, which are not always exact repeats. Equal values may be shown once. Toxic doses and inconclusive results are not listed. How the source made its calls: active means survival T/C of 150% or more; inactive means T/C below 125% in these data.

Tested on: BDF1 mice, B16 melanoma ip, median survival T/C
Experiment: NCI In Vivo Anticancer Drug Screen. Data for tumor model B16 Melanoma (intraperitoneal) in B6D2F1 (BDF1) mice
Settings: endpoint: median survival time, higher = longer survival
Outline: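 Compounds were tested in mice carrying transplantable tumors. Survival or tumor size was recorded, and each value is the treated-group measurement (T) divided by that of the vehicle-treated control group (C).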

[1] = dose: 2.0 mg/kg/injection, schedule: Q01DX009 (ip), vehicle: saline
[2] = dose: 25.0 mg/kg/injection, schedule: Q01DX009 (ip), vehicle: Klucel (hydroxypropylcellulose) (HPC)
[3] = dose: 50.0 mg/kg/injection, schedule: Q01DX009 (ip), vehicle: Klucel (hydroxypropylcellulose) (HPC)
[4] = dose: 100.0 mg/kg/injection, schedule: Q01DX009 (ip), vehicle: Klucel (hydroxypropylcellulose) (HPC)
[5] = dose: 200.0 mg/kg/injection, schedule: Q01DX009 (ip), vehicle: Klucel (hydroxypropylcellulose) (HPC)
[6] = dose: 400.0 mg/kg/injection, schedule: Q01DX009 (ip), vehicle: Klucel (hydroxypropylcellulose) (HPC)
[7] = dose: 12.5 mg/kg/injection, schedule: Q01DX009 (ip), vehicle: Klucel (hydroxypropylcellulose) (HPC)
[8] = dose: 25.0 mg/kg/injection, schedule: Q01DX009 (ip), vehicle: saline with Tween-80
[9] = dose: 50.0 mg/kg/injection, schedule: Q01DX009 (ip), vehicle: saline with Tween-80
[10] = dose: 100.0 mg/kg/injection, schedule: Q01DX009 (ip), vehicle: saline with Tween-80

Measured: T/C

NC(Cc1ccc(N(CCCl)CCCl)cc1)C(=O)O (stereo not drawn)
active: [1] 188 % of control | dose: 4.0 mg/kg/injection, schedule: Q01DX009 (ip), vehicle: water 272 % of control | dose: 8.0 mg/kg/injection, schedule: Q01DX009 (ip), vehicle: water 172 % of control
inactive: dose: 2.0 mg/kg/injection, schedule: Q01DX009 (ip), vehicle: water 118 % of control

CN(C1=NS(=O)(=O)N=C(N(C)c2ccccc2)O1)c1ccccc1
inactive: [2] 101 % of control | [3] 108 % of control | [4] 96 % of control | [5] 93 % of control | [6] 87 % of control

O=C(Nc1ccc([N+](=O)[O-])cc1)Nc1nccs1
active: dose: 50.0 mg/kg/injection, schedule: Q01DX009 (ip), vehicle: distilled water + Tween-80 152 % of control

N#CC(Nc1ccccc1)c1ccccc1 (stereo not drawn)
inactive: [3] 100 % of control | [4] 94 % of control

C[C@]12CC[C@@H]3c4ccc(O)cc4CC[C@H]3[C@@H]1CC[C@@H]2O
inactive: dose: 6.25 mg/kg/injection, schedule: Q01DX009 (ip), vehicle: Klucel (hydroxypropylcellulose) (HPC) 97 % of control | [7] 94 % of control | [2] 93 % of control | [3] 97 % of control | [4] 88 % of control | [5] 87 % of control

Cc1c2ccnc(-c3ccccc3)c2cc2c1[nH]c1ccccc12
inactive: [8] 115 % of control | [9] 104 % of control | [10] 94 % of control and 96 % of control

O=C(Nc1cccc(C(F)(F)F)c1)c1cc(Br)cc(Br)c1O
inactive: [7] 108 % of control | [2] 106 % of control | [3] 110 % of control

C/C=C(\C)c1cc(=O)c2c(C)cc3c(c2o1)C(=O)c1c(O)c(C2CC(C)(N(C)C)C(O)C(C)O2)cc(C2CC(N(C)C)C(O)C(C)O2)c1C3=O (stereo not drawn)
inactive: dose: 0.5 mg/kg/injection, schedule: Q01DX009 (ip), vehicle: Klucel (hydroxypropylcellulose) (HPC) 104 % of control | dose: 31.0 micrograms/kg/injection, schedule: Q01DX009 (ip), vehicle: saline 102 % of control | dose: 39.06 micrograms/kg/injection, schedule: Q01DX009 (ip), vehicle: saline 123 % of control | dose: 62.0 micrograms/kg/injection, schedule: Q01DX009 (ip), vehicle: saline 113 % of control | dose: 156.0 micrograms/kg/injection, schedule: Q01DX009 (ip), vehicle: saline 118 % of control | dose: 250.0 micrograms/kg/injection, schedule: Q01DX009 (ip), vehicle: saline 105 % of control | dose: 312.5 micrograms/kg/injection, schedule: Q01DX009 (ip), vehicle: saline 122 % of control | dose: 625.0 micrograms/kg/injection, schedule: Q01DX009 (ip), vehicle: saline 94 % of control and 100 % of control

O=c1[nH]cc(F)c(=O)[nH]1
inactive: dose: 0.5 mg/kg/injection, schedule: Q01DX009 (ip), vehicle: saline 107 % of control | dose: 1.25 mg/kg/injection, schedule: Q03HX024 (ip), vehicle: saline 110 % of control | [1] 118 % of control | dose: 2.5 mg/kg/injection, schedule: Q01DX017 (ip), vehicle: saline 104 % of control | dose: 2.5 mg/kg/injection, schedule: Q03HX024 (ip), vehicle: saline 112 % of control | dose: 3.12 mg/kg/injection, schedule: Q01DX009 (ip), vehicle: saline 102 % of control | dose: 3.8 mg/kg/injection, schedule: Q04DX003 (ip), vehicle: saline 116 % of control | dose: 5.0 mg/kg/injection, schedule: Q01DX001 (ip), vehicle: saline 105 % of control | dose: 5.0 mg/kg/injection, schedule: Q01DX009 (ip), vehicle: saline with Tween-80 104 % of control | dose: 5.0 mg/kg/injection, schedule: Q01DX017 (ip), vehicle: saline 107 % of control | dose: 5.0 mg/kg/injection, schedule: Q05DX010 (ip), vehicle: saline 115 % of control | dose: 6.25 mg/kg/injection, schedule: Q01DX009 (ip), vehicle: saline 91 % of control | dose: 7.0 mg/kg/injection, schedule: Q01DX009 (ip), vehicle: saline 117 % of control | dose: 7.5 mg/kg/injection, schedule: Q01DX009 (ip), vehicle: saline 117 % of control | dose: 7.5 mg/kg/injection, schedule: Q04DX003 (ip), vehicle: saline 116 % of control | dose: 7.8 mg/kg/injection, schedule: Q04DX003 (ip), vehicle: saline 104 % of control | dose: 10.0 mg/kg/injection, schedule: Q01DX001 (ip), vehicle: saline 107 % of control | dose: 10.0 mg/kg/injection, schedule: Q01DX009 (ip), vehicle: saline with Tween-80 104 % of control and 111 % of control and 114 % of control | dose: 10.0 mg/kg/injection, schedule: Q05DX010 (ip), vehicle: saline 120 % of control | dose: 12.0 mg/kg/injection, schedule: Q01DX009 (ip), vehicle: saline 115 % of control | dose: 12.5 mg/kg/injection, schedule: Q01DX009 (ip), vehicle: saline 123 % of control | dose: 12.5 mg/kg/injection, schedule: Q04DX005 (ip), vehicle: saline 107 % of control | dose: 13.0 mg/kg/injection, schedule: Q04DX003 (ip), vehicle: saline 108 % of control | dose: 15.0 mg/kg/injection, schedule: Q01DX009 (ip), vehicle: saline 121 % of control and 122 % of control | dose: 15.0 mg/kg/injection, schedule: Q04DX003 (ip), vehicle: saline 122 % of control | dose: 20.0 mg/kg/injection, schedule: Q01DX001 (ip), vehicle: saline 115 % of control | dose: 20.0 mg/kg/injection, schedule: Q01DX009 (ip), vehicle: saline with Tween-80 116 % of control and 119 % of control | dose: 21.6 mg/kg/injection, schedule: Q04DX003 (ip), vehicle: saline 103 % of control | dose: 25.0 mg/kg/injection, schedule: Q01DX009 (ip), vehicle: saline 119 % of control | dose: 25.0 mg/kg/injection, schedule: Q04DX003 (ip), vehicle: saline 122 % of control | dose: 25.0 mg/kg/injection, schedule: Q04DX005 (ip), vehicle: saline 117 % of control | dose: 30.0 mg/kg/injection, schedule: Q01DX009 (ip), vehicle: saline 124 % of control | dose: 30.0 mg/kg/injection, schedule: Q04DX003 (ip), vehicle: saline 117 % of control and 122 % of control | dose: 36.0 mg/kg/injection, schedule: Q04DX003 (ip), vehicle: saline 104 % of control | dose: 40.0 mg/kg/injection, schedule: Q01DX001 (ip), vehicle: saline 120 % of control | dose: 40.0 mg/kg/injection, schedule: Q01DX009 (ip), vehicle: saline with Tween-80 88 % of control and 97 % of control | dose: 50.0 mg/kg/injection, schedule: Q01DX001 (ip), vehicle: saline 110 % of control | dose: 50.0 mg/kg/injection, schedule: Q04DX003 (ip), vehicle: saline 120 % of control | dose: 50.0 mg/kg/injection, schedule: Q04DX005 (ip), vehicle: saline 115 % of control | dose: 60.0 mg/kg/injection, schedule: Q01DX009 (ip), vehicle: saline 39 % of control | dose: 60.0 mg/kg/injection, schedule: Q04DX003 (ip), vehicle: saline 52 % of control and 119 % of control | dose: 90.0 mg/kg/injection, schedule: Q04DX003 (ip), vehicle: saline 123 % of control | dose: 100.0 mg/kg/injection, schedule: Q01DX001 (ip), vehicle: saline 110 % of control | dose: 120.0 mg/kg/injection, schedule: Q04DX003 (ip), vehicle: saline 93 % of control | dose: 200.0 mg/kg/injection, schedule: Q01DX001 (ip), vehicle: saline 110 % of control | dose: 240.0 mg/kg/injection, schedule: Q04DX003 (ip), vehicle: saline 73 % of control | dose: 480.0 mg/kg/injection, schedule: Q04DX003 (ip), vehicle: saline 47 % of control
active: dose: 20.0 mg/kg/injection, schedule: Q01DX017 (ip), vehicle: saline 161 % of control and 169 % of control

O=c1ccc2nc3ccccc3sc-2c1
inactive: dose: 12.5 mg/kg/injection, schedule: Q01DX009 (ip), vehicle: saline with Tween-80 93 % of control | [8] 86 % of control | [9] 95 % of control | [10] 91 % of control

N/C(=N\O)c1cn(C2OC(CO)C(O)C2O)c2ncnc(N)c12 (stereo not drawn)
inactive: dose: 1.0 mg/kg/injection, schedule: Q01DX009 (ip), vehicle: saline 115 % of control | [1] 117 % of control | dose: 4.0 mg/kg/injection, schedule: Q01DX009 (ip), vehicle: saline 121 % of control

CCOC(=O)C(Cc1ccc(Cl)cc1)(Cc1ccc(Cl)cc1)C(=O)OCC
inactive: [4] 106 % of control | [5] 100 % of control | [6] 93 % of control

CCNC(Cc1ccccc1)c1ccc(OC)cc1 (stereo not drawn)
inactive: [7] 106 % of control | [2] 100 % of control | [3] 113 % of control
